{"source": "patent US8288510B2", "about": "“Isolated peptides having phospholipase inhibitory activity” (priority 2008, dated 2012)", "key": {"FOL wt": {"target": "FOL wt", "test": "Enzyme assay p-NP butyrate, inhibitory effect of peptides on FoL wildtype (Example 8)", "format": "biochemical, Fusarium oxysporum", "conditions": "fitted against inhibitor/lipase ratio (peptide excess 0.5 to 1000), pH 7", "protocol": "(§1) Enzyme assay: The substrate used for these experiments was para-nitropenyl (p-NP) butyrate (N9876 Sigma Aldrich). A substrate stock solution was prepared by adding 18 μL of p-NP butyrate to 1 ml of 2-propanol giving a 100 mM stock solution. The working solution was prepared by diluting 500 μL stock solution in final volume of 50 mL 500 mM phosphate pH 7, 0.4% triton X-100. […] An enzyme substrate blank containing 60 μL was included. After pre-incubation in minimum 15 minutes, 100 μL of substrate was added and the reaction was followed in microtiter plate spectrophotometer (SPECTRAmax PLUS 384 from Molecular Devices) after an initial shaking (5 sec.) at room temperature. Colour development over time was monitored at A405 (every 20 sec. for 30 minutes), measuring p-nitrophenol, one of the degradation products of p-NP butyrate, liberated by the hydrolysis.\n(§2) Initial reaction rates (determined as the linear initial slope of A405 plotted against time) were plotted against the logarithm to the inhibitor/lipase ratio. From the following model IC50 values were determined:\n(§3) v0 is the initial reaction rate, vmax is the maximum rate, vmin is the minimum reaction rate and IC50 is the half maximal inhibitory concentration. GraphPad Prism (v.5.00, Mar. 12, 2007) from GraphPad Software, Inc. was used for regression."}, "FOL I207E variant": {"target": "FOL I207E variant", "sequence (as listed by the source, stated change not applied)": "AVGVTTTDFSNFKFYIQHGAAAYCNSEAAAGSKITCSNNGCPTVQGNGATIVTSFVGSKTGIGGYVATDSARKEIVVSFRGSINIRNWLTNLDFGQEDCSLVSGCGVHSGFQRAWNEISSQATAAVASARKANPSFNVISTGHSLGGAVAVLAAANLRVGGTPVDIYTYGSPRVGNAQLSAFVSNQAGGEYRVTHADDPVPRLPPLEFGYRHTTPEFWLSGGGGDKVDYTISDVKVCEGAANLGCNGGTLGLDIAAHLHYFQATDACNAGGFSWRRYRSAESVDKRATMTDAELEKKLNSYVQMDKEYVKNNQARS", "test": "Enzyme assay p-NP butyrate, inhibitory effect of peptides on FoL variant I207E (Example 8)", "format": "biochemical, Fusarium oxysporum", "conditions": "for IC50 value (half maximal inhibitory concentration): FOL I207E variant, fitted against inhibitor/lipase ratio (peptide excess 0.5 to 1000), p-NP butyrate, pH 7", "protocol": "as §1, §2, §3"}, "[1]": {"target": "T1, TLL variant N248G/Q249G/P250T/N251L/I252G/P253L (Thermomyces lanuginosus, UniProt O59952, I274G/N270G/N273L/P272T/P275L/Q271G)", "T1 sequence (O59952 23-291 N270G/Q271G/P272T/N273L/I274G/P275L)": "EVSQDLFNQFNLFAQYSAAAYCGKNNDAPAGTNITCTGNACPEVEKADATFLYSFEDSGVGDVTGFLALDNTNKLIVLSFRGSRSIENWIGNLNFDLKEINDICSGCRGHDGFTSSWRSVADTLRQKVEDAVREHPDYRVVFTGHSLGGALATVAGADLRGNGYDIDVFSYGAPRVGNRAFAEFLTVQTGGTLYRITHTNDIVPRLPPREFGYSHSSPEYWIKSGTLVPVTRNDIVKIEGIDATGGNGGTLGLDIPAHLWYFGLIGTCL", "test": "Enzyme assay p-NP butyrate, inhibitory effect of peptides on TLL variant (Example 9)", "format": "biochemical", "conditions": "peptide/lipase ratios 5 to 5000 (P11, P13), 6 to 6000 (P12)", "protocol": "as §1, §2, §3\nEnzyme assay: As described above."}, "[2]": {"test": "Lecithin plate assay, clearing zone (phospholipase activity)", "format": "biochemical", "conditions": "for Clearing zone diameter: after 20 hours incubation"}}}
{"molecule": "ATMTDAELEKKLNSYVQMAKEYVKNNQARS [P1′]", "values": [{"measurement": "IC50 value (half maximal inhibitory concentration)", "setting": "FOL wt", "result": "No"}, {"measurement": "IC50 value (half maximal inhibitory concentration)", "setting": "FOL I207E variant", "result": "No"}]}
{"molecule": "ATMTDAELEKKLNSYVQMDKEEVKNNQARS [Peptide P4]", "values": [{"measurement": "IC50 value (half maximal inhibitory concentration)", "setting": "FOL wt", "result": "No"}, {"measurement": "IC50 value (half maximal inhibitory concentration)", "setting": "FOL I207E variant", "result": "Very low"}]}
{"molecule": "ATMTDAELEKKLNSYVQMDKEYVKNNQARS [Peptide P0]", "values": [{"measurement": "binding of the peptide by FoL variant I207E compared with wildtype enzyme (% inhibition curves, FIG. 8 C)", "setting": "FOL I207E variant; 0% inhibition assumed for lowest peptide concentration", "result": "better at binding the peptide than the wildtype enzyme"}]}
{"molecule": "ATMTDAELTKKLNSYVQMDKEYVKNNQARS [Peptide P2]", "values": [{"measurement": "IC50 value (half maximal inhibitory concentration)", "setting": "FOL wt", "result": "Very low"}]}
{"molecule": "ATMTDAEVEKKLNSYVQMDKEYVKNNQARS [Peptide P11]", "values": [{"measurement": "IC50 value (half maximal inhibitory concentration)", "setting": "[1]", "result": "Very low"}]}
{"molecule": "ATMTEAELEKKLNSYVQMDKEYVKNNQARS [Peptide P1]", "values": [{"measurement": "IC50 value (half maximal inhibitory concentration)", "setting": "FOL wt", "result": "Very low"}]}
{"molecule": "FoL: Fusarium oxysporum lipase, SEQ ID No. 1 (protein, listed as Fusarium oxysporum) AVGVTTTDFSNFKFYIQHGAAAYCNSEAAAGSKITCSNNGCPTVQGNGATIVTSFVGSKTGIGGYVATDSARKEIVVSFRGSINIRNWLTNLDFGQEDCSLVSGCGVHSGFQRAWNEISSQATAAVASARKANPSFNVISTGHSLGGAVAVLAAANLRVGGTPVDIYTYGSPRVGNAQLSAFVSNQAGGEYRVTHADDPVPRLPPLIFGYRHTTPEFWLSGGGGDKVDYTISDVKVCEGAANLGCNGGTLGLDIAAHLHYFQATDACNAGGFSWRRYRSAESVDKRATMTDAELEKKLNSYVQMDKEYVKNNQARS", "values": [{"measurement": "Clearing zone diameter", "setting": "[2]; ODA280 0.2", "result": 7, "unit": "mm"}, {"measurement": "Clearing zone diameter", "setting": "[2]; ODA280 0.5", "result": 10, "unit": "mm"}]}
{"molecule": "TLL: Thermomyces lanuginosus lipase, SEQ ID No. 9 (protein, listed as Thermomyces lanuginosus) EVSQDLFNQFNLFAQYSAAAYCGKNNDAPAGTNITCTGNACPEVEKADATFLYSFEDSGVGDVTGFLALDNTNKLIVLSFRGSRSIENWIGNLNFDLKEINDICSGCRGHDGFTSSWRSVADTLRQKVEDAVREHPDYRVVFTGHSLGGALATVAGADLRGNGYDIDVFSYGAPRVGNRAFAEFLTVQTGGTLYRITHTNDIVPRLPPREFGYSHSSPEYWIKSGTLVPVTRNDIVKIEGIDATGGNNQPNIPDIPAHLWYFGLIGTCL", "values": [{"measurement": "Clearing zone diameter", "setting": "[2]; ODA280 0.2", "result": 0, "unit": "mm"}, {"measurement": "Clearing zone diameter", "setting": "[2]; ODA280 0.5", "result": 0, "unit": "mm"}, {"measurement": "Clearing zone (in words)", "setting": "[2]; after 20 hours of incubation, ODA280 0.2 and 0.5", "result": "did not show a clearing zone"}]}
